Test results from the supplement of paper PMC10627819.

What was measured:
S. pneumoniae D39V [1] = assay: fitness (endpoint OD595 vs no drug) (fraction); higher = more growth; settings: main component drawn
Summary of the method: (§1)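 Bacterial growth was followed in 384-well plates seeded at OD595 0.01, with 30 µl per well, or 55 µl for S. pneumoniae, in TSB, LB Lennox or CY at 37 °C. OD595 was read every 30 min for 14 h, and each reading had the first reading subtracted as background. Fitness is the background-corrected optical density at entry into stationary phase divided by the robust mean of the no-drug control wells. This ratio is capped at 1.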

B. subtilis 168 [2] = assay: as above; settings: one replicate, main component drawn
Summary of the method: as §1

S. pneumoniae D39V [3] = assay: Bliss interaction score (quartile over a dose matrix) (fitness difference); higher = more antagonism (negative = synergy); settings: main component drawn
Summary of the method: (§2)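 The Bliss score is observed minus expected fitness under the product model, reported as quartiles over technical, biological and donor/recipient replicates. Fitness is the OD595 at entry into stationary phase divided by the plate's robust no-drug mean and capped at 1. Single-drug fitness was inferred from combination data.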

S. aureus Newman = assay: as above; settings: main component drawn
Summary of the method: as §2

S. aureus DSM 20231 = assay: as above; settings: main component drawn
Summary of the method: as §2

B. subtilis 168 [4] = assay: as above; settings: main component drawn
Summary of the method: as §2
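Throughout, for Bliss interaction score (quartile over a dose matrix): first quartile when negative (synergy) and third quartile when positive (antagonism).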

CO/N=C(\C(=O)N[C@@H]1C(=O)N2C(C(=O)O)=C(COC(C)=O)CS[C@H]12)c1csc(N)n1 [Cefotaxime] + CCC(C)C1C(=O)NC(=C)C(=O)NC(C(=O)NC(CSCC(C(=O)N1)NC(=O)/C(=C/C)/NC(=O)C(C(C)CC)N)C(=O)NC2C(SCC(NC(=O)CNC(=O)C3CCCN3C2=O)C(=O)NC(CCCCN)C(=O)NC4C(SCC(NC(=O)CNC(=O)C(NC(=O)C(NC(=O)C(NC(=O)CNC4=O)C)CC(C)C)CCSC)C(=O)NC(CC(=O)N)C(=O)NC(CCSC)C(=O)NC(CCCCN)C(=O)NC5C(SCC6C(=O)NC(C(=O)NC(CSC(C(C(=O)N6)NC(=O)C(NC5=O)C)C)C(=O)NC(CO)C(=O)NC(C(C)CC)C(=O)NC(CC7=CN=CN7)C(=O)NC(C(C)C)C(=O)NC(=C)C(=O)NC(CCCCN)C(=O)O)CC8=CN=CN8)C)C)C)CC(C)C [Nisin]
Settings	fitness
B. subtilis 168 [2], first compound 0.00775 µg/mL, partner 0.5 µg/mL	0.825
B. subtilis 168 [2], first compound 0.00775 µg/mL, partner 1 µg/mL	0.74
B. subtilis 168 [2], first compound 0.00775 µg/mL, partner 2 µg/mL	0.508
B. subtilis 168 [2], first compound 0.0155 µg/mL, partner 0.5 µg/mL	0.704
B. subtilis 168 [2], first compound 0.0155 µg/mL, partner 1 µg/mL	0.605
B. subtilis 168 [2], first compound 0.0155 µg/mL, partner 2 µg/mL	0.434
B. subtilis 168 [2], first compound 0.031 µg/mL, partner 0.5 µg/mL	0.513
B. subtilis 168 [2], first compound 0.031 µg/mL, partner 1 µg/mL	0.432
B. subtilis 168 [2], first compound 0.031 µg/mL, partner 2 µg/mL	0.251
B. subtilis 168 [2], first compound 0.0625 µg/mL, partner 1.25 µg/mL	0.397
B. subtilis 168 [2], first compound 0.0625 µg/mL, partner 1.6 µg/mL	0.18
B. subtilis 168 [2], first compound 0.0625 µg/mL, partner 2.5 µg/mL	0.0546
B. subtilis 168 [2], first compound 0.0625 µg/mL, partner 3.2 µg/mL	0.0399
B. subtilis 168 [2], first compound 0.0625 µg/mL, partner 5 µg/mL	0.0497
B. subtilis 168 [2], first compound 0.0625 µg/mL, partner 6.4 µg/mL	0.0827
B. subtilis 168 [2], first compound 0.125 µg/mL, partner 1.25 µg/mL	0.176
B. subtilis 168 [2], first compound 0.125 µg/mL, partner 1.6 µg/mL	0.0847
B. subtilis 168 [2], first compound 0.125 µg/mL, partner 2.5 µg/mL	0.0355
B. subtilis 168 [2], first compound 0.125 µg/mL, partner 3.2 µg/mL	0.0507
B. subtilis 168 [2], first compound 0.125 µg/mL, partner 5 µg/mL	0.0352
B. subtilis 168 [2], first compound 0.125 µg/mL, partner 6.4 µg/mL	0.0748
B. subtilis 168 [2], first compound 0.25 µg/mL, partner 1.25 µg/mL	0.109
B. subtilis 168 [2], first compound 0.25 µg/mL, partner 1.6 µg/mL	0.0456
B. subtilis 168 [2], first compound 0.25 µg/mL, partner 2.5 µg/mL	0.0476
B. subtilis 168 [2], first compound 0.25 µg/mL, partner 3.2 µg/mL	0.0432
B. subtilis 168 [2], first compound 0.25 µg/mL, partner 5 µg/mL	0.0316
B. subtilis 168 [2], first compound 0.25 µg/mL, partner 6.4 µg/mL	0.0433
B. subtilis 168 [2], first compound 0.5 µg/mL, partner 0.5 µg/mL	0.105
B. subtilis 168 [2], first compound 0.5 µg/mL, partner 1 µg/mL	0.0334
B. subtilis 168 [2], first compound 0.5 µg/mL, partner 2 µg/mL	0.0461
B. subtilis 168 [2], first compound 0.5 µg/mL, partner 4 µg/mL	0.0435
B. subtilis 168 [2], first compound 0.5 µg/mL, partner 8 µg/mL	0.0411
B. subtilis 168 [2], first compound 0.5 µg/mL, partner 16 µg/mL	0.025
B. subtilis 168 [2], first compound 1 µg/mL, partner 0.5 µg/mL	0.0988
B. subtilis 168 [2], first compound 1 µg/mL, partner 1 µg/mL	0.0354
B. subtilis 168 [2], first compound 1 µg/mL, partner 2 µg/mL	0.0395
B. subtilis 168 [2], first compound 1 µg/mL, partner 4 µg/mL	0.0388
B. subtilis 168 [2], first compound 1 µg/mL, partner 8 µg/mL	0.0243
B. subtilis 168 [2], first compound 1 µg/mL, partner 16 µg/mL	0.0126
B. subtilis 168 [2], first compound 2 µg/mL, partner 0.5 µg/mL	0.0708
B. subtilis 168 [2], first compound 2 µg/mL, partner 1 µg/mL	0.0361
B. subtilis 168 [2], first compound 2 µg/mL, partner 2 µg/mL	0.0552
B. subtilis 168 [2], first compound 2 µg/mL, partner 4 µg/mL	0.0578
B. subtilis 168 [2], first compound 2 µg/mL, partner 8 µg/mL	0.0592
B. subtilis 168 [2], first compound 2 µg/mL, partner 16 µg/mL	0.0351
S. pneumoniae D39V [1], first compound 0.0018 µg/mL, partner 0.4275 µg/mL	0.995
S. pneumoniae D39V [1], first compound 0.0018 µg/mL, partner 0.855 µg/mL	≥ 1
S. pneumoniae D39V [1], first compound 0.0018 µg/mL, partner 1.6 µg/mL	0.0249
S. pneumoniae D39V [1], first compound 0.0018 µg/mL, partner 1.71 µg/mL	0.0807
S. pneumoniae D39V [1], first compound 0.0018 µg/mL, partner 3.2 µg/mL	0.0291
S. pneumoniae D39V [1], first compound 0.0018 µg/mL, partner 6.4 µg/mL	0.0188
S. pneumoniae D39V [1], first compound 0.0035 µg/mL, partner 0.4275 µg/mL	0.896
S. pneumoniae D39V [1], first compound 0.0035 µg/mL, partner 0.855 µg/mL	0.936
S. pneumoniae D39V [1], first compound 0.0035 µg/mL, partner 1.6 µg/mL	0.0152
S. pneumoniae D39V [1], first compound 0.0035 µg/mL, partner 1.71 µg/mL	0.0712
S. pneumoniae D39V [1], first compound 0.0035 µg/mL, partner 3.2 µg/mL	0.0408
S. pneumoniae D39V [1], first compound 0.0035 µg/mL, partner 6.4 µg/mL	0.0145
S. pneumoniae D39V [1], first compound 0.007 µg/mL, partner 0.4275 µg/mL	0.835
S. pneumoniae D39V [1], first compound 0.007 µg/mL, partner 0.855 µg/mL	0.577
S. pneumoniae D39V [1], first compound 0.007 µg/mL, partner 1.6 µg/mL	0.0188
S. pneumoniae D39V [1], first compound 0.007 µg/mL, partner 1.71 µg/mL	0.0886
S. pneumoniae D39V [1], first compound 0.007 µg/mL, partner 3.2 µg/mL	0.0158
S. pneumoniae D39V [1], first compound 0.007 µg/mL, partner 6.4 µg/mL	0.0145

Settings	Bliss interaction score
B. subtilis 168 [4]	-0.0392
S. aureus DSM 20231	-0.199
S. aureus Newman	-0.0293
S. pneumoniae D39V [3]	-0.051
